Experimental data from US11612586B2, “Indole regulation of antigen presenting cells” (THE TEXAS A&M UNIVERSITY SYSTEM, priority 2016, dated 2023).

Tests used:
B220 (CD45R) = experiment: B220 surface expression on BMDCs; type: cell-based, mouse; details: BMDCs cultured from day 3 with indole (1 mM) or retinoic acid (1 μM)
Experimental: FIGS. 12A and 12B graphically illustrate that indole induces CCR9 and B220 on DCs. BMDCs were cultured in the presence of indole (1 mM), retinoic acid (1 μM), or DMF solvent control from day 3. On day 7, DCs were surface stained for expression of CCR9 and B220 and analyzed by flow cytometry. […] Mean of three independent experiments. * indicates p<0.05 for one-way ANOVA followed by Dunnett's post-test.
An indole-induced upregulation of the B220 (CD45R) antigen was also observed (FIGS. 12A and 12B), which is widely used to distinguish the plasmacytoid DC lineage and is believed to contribute to gut homing. However, more recently B220 has been reported to distinguish a DC subset more closely developmentally related to conventional rather than plasmacytoid DCs and a precursor to resident CD8+ and CD8− conventional DCs.

Akt = experiment: phospho-Akt in BMDCs, flow cytometry; type: cell-based, mouse
Experimental: Flow cytometric analysis was performed on BMDCs conditioned with indole from day 3 of culture and subsequently stimulated with LPS (5 ug/ml) for the given times. Cells were stained for phospho-Akt and analyzed by flow cytometry.
Flow cytometric analysis was performed on BMDCs from WT or AhrKO mice cultured in the presence of indole (1 mM) from day 3. DCs were stimulated with LPS (5 ug/ml) for the given times and stained for phospho-Akt, which was detected by flow cytometry. Percentage of pAkt-positive DCs indicated. Representative data is from one of three independent experiments.
Another central mediator of cellular signaling is the serine/threonine kinase, Akt (also referred to as protein kinase B), which regulates cellular processes including metabolism, growth, proliferation, and survival. The Akt pathway is activated by numerous receptor tyrosine kinases, cytokine receptors, G-protein-coupled receptors, and other molecules which activate the lipid kinase PI3K and result in production of phosphatidylinositol (3,4,5)-trisphosphate (PIPS). This second messenger acts as a docking site at the plasma membrane for Akt where phosphorylation and activation occurs. Akt is located upstream of NF-kB and can induce NF-kB signaling via phosphorylation of IKKα and Tp12. The effect of indole on Akt phosphorylation was assessed to determine whether indole's inhibition of NF-kB might be a secondary effect due to modulation of an upstream target.
The inventors performed a series of assays where bone marrow derived macrophages (BMDMs), bone marrow derived dendritic cells (BMDCs), and splenic dendritic cells (splenic DCs), were exposed to a series of TDMMs, including indole, indole-3-acetate (I3AT), 5-hydroxyindole (5HI), and indole-3-pyruvate (I3P), as well as indole-3-carbinol (I3C; a plant derived compound) to be used for a positive control (1 mM for 24 hours). The BMDMs and BMDCs were stimulated with LPS for 4 hours and assayed at day 7 for expression of various pro-inflammatory cytokines. In a similar assay, the BMDMs and BMDCs were stimulated with LPS or CpG, respectively, for 15 minutes and assayed for pAKT and pERK signaling, which is a reflection of pro-inflammatory response.

aldh1a2 = aldh1a2 gene expression in BMDCs, real-time qPCR; type: cell-based, murine; details: day 7 BMDCs cultured with indole from day 3
Experimental: FIG. 13A: BMDCs were cultured from day 3 with indole (1 mM), retinoic acid (1 uM), or DMF control were assayed for aldehyde dehydrogenase (ALDH) activity using the Aldefluor commercial kit. The ALDH inhibitor, DEAB reagent, was included to control for background fluorescence. Aldefluor fluorescence as a measure of ALDH activity was analyzed by flow cytometry. Data is reported as percentage of Aldefluor positive DCs (left panel) and corresponding MFI values (right panel). Individual dots represent data from five independent experiments. FIG. 13B: Gene expression of aldh1a2 was assayed by real-time qPCR in day 7 BMDCs cultured with indole from day 3. Gene expression was normalized to 18 s ribosomal RNA. Mean of three independent experiments. *p<0.05 by Student's t test.
Total RNA was extracted from BMDCs using RNeasy Mini Kit (Qiagen) and then retro-transcribed using cDNA Superscript Mastermix (Quanta). Quantitative PCR reactions were carried out in triplicate using Perfecta SYBR Green Fast Mix, Low ROX (Quanta).
Gene expression levels for each individual sample were normalized to 18 s. Mean relative gene expression was determined and differences were calculated using the 2^−ΔC(t) method.

naïve CD4+CD25− T cells = experiment: DC-T cell co-culture, polyclonal stimulation: Foxp3+ Treg induction; type: cell-based, mouse; details: naïve T cells co-cultured 72 hours with BMDCs conditioned with indole
Experimental: FIG. 15 is a set of FACS plots showing that indole-conditioned DCs preferentially induce Foxp3+ Tregs (polyclonal stimulation). Naïve wild-type CD4+CD25− T cells were sorted and co-cultured with indole- or DMF-conditioned BMDCs. Cells were cultured together for 72 hours in the presence of soluble α-CD3 (5 ug/ml) as well as TGF-β (2 ng/ml) with or without IL-2 (100 U/ml). Subsequently, cells were stained for the transcription factor Foxp3 and analyzed by flow cytometry. Shaded gray histograms represent unstained controls. Representative data from one of four experiments is shown.
To investigate whether indole-conditioned DCs preferentially induce Tregs, a co-culture system using FACS-sorted wild-type naïve CD4+CD25− T cells was employed. These naïve T cells were activated by antibodies against CD3 and CD28 in the presence of indole-conditioned BMDCs and cultured for 72 hours. Under this platform for polyclonal stimulation, a 2-fold increase in Treg induction in indole-DC cultures compared to controls was observed (FIG. 15). Additionally, the inventors pursued the same question in a more physiologically relevant model; i.e., under monoclonal T cell stimulation. […]

c1ccc2[nH]ccc2c1 [Indole, indole]
B220 (CD45R) expression on BMDCs (B220 (CD45R)): upregulation | pAKT (Akt; BMDCs, 1 mM TDMM 24 hours, CpG (5 uM) 15 minutes): ↓↓ | reduction of phospho-Akt (Akt; BMDCs, 1 mM indole, 30 minutes post-LPS stimulation): over 50% | phospho-Akt in the absence of external stimulation (Akt; BMDCs, indole versus controls, unstimulated): No difference | inhibition of Akt phospho-signaling, WT versus AhR−/− (Akt; indole-DCs generated from WT or AhR−/− bone marrow): nearly equivalent inhibition | aldh1a2 expression (aldh1a2): inhibits | increase in Treg induction compared to controls (naïve CD4+CD25− T cells): 2 fold
